Experimental data: patent US20100004168A1, “Use of Crystallin For The Modulation of Angiogenesis” (The Johns Hopkins University, priority 2006, published 2010)
“Also recorded” adds a separate entry of the source.

Columns and labels:
[1] = tested on: Human astrocyte cell line (SVG); test: VEGF and crystallin immunostaining in cultured astrocytes exposed to 3-nitropropionic acid; format: cell-based; conditions: 10 μM 3-NP
Procedure: Human astrocyte cell line (SVG) was treated with 10 μM 3-NP, and cells were harvested for immunostaining with antibodies to VEGF and crystallins after 6, 12, and 24 hours. […] Fluorescence with both of the antibodies is increased after 12 hours of exposure to 3-NP in culture. […] Nuclei were counterstained with DAPI.
It has been shown that astrocytes are sensitive to hypoxia, which induces them to release VEGF (Chow et al., 2001; Sandercoe et al., 2003). To determine if astrocytes also express β- and γ-crystallins in response to hypoxia, 3-nitropropionic acid, an irreversible inhibitor of mitochondrial succinate dehydrogenase activity was used (Cavaliere et al., Neurochem Int 38:189-197, 2001). It can be considered a model substance to study hypoxic neuronal damage (Riepe et al., Neurosci Lett 211:9-12, 1996).
The SVG cell line used in this study was derived from human fetal astrocytes transformed with SV40 large T antigen (Major et al., J Biol Chem 278:13512-13519, 1985; Tornatore et al., Cell Transplant 5:145-163, 1996). Cultures of the human fetal astrocyte cell line (SVG) were maintained in Dulbecco's modified Eagle's medium with 2 mM L-glutamine, 10% fetal bovine serum, and streptomycin penicillin-fungizone solutions. Cells grown in 60-mm dishes were treated with 10 μM 3-nitropropionic acid (3NP) for 6, 12, and 24 hours at 37° C. and then fixed with paraformaldehyde (4%) for 15 minutes and blocked with 3% BSA at 4° C. overnight. The fixed cells were processed following standard techniques for immunofluorescence using VEGF and crystallin antibodies as indicated earlier.

[2] = tested on: HUVEC (Human umbilical vein endothelial cells); test: Three-dimensional tube formation assay of HUVEC on Matrigel; format: cell-based; conditions: HUVEC on Matrigel treated with purified proteins (crystallins 0.5 μg/ml), vs controls
Excerpt: In order to better understand the functional role of β/γ-crystallins in vascular remodeling, HUVEC (Human umbilical vein endothelial cells) were established in culture. HUVEC differentiation into tube-like structures in three dimensional Matrigel cultures has been commonly used as a model system to studying angiogenesis (Edelman et al. Exp. Eye Res. 80(2): 249-58, 2005; Xin et al. J. Biol. Chem. 274(13): 9116-21, 1999). After plating HUVEC onto Matrigel, the cells differentiated to form tubes and a capillary-like network at the minimum seeding density of 5×10^3 cells/well (FIGS. 20A-20F). These differentiated cells form tubes and express crystallins (FIGS. 21A and 21B).
The effect of β/γ crystallins and VEGF on HUVEC tube formation and regression was examined. VEGF protein used in this study was purchased from R&D Systems (Minneapolis, Minn.) and the polyclonal antibody was from Santa Cruz Biotechnology (Santa Cruz, Calif.). To prepare the crystallin proteins, lenses dissected from bovine eyes were homogenized in 7 volumes of 0.05M Tris buffer, pH 7.4 containing 0.1M KCl, 10 mM 2-mercaptoethanol and 0.02% NaN3. […] Fractions were collected and peaks analyzed by SDS-PAGE. […]
The cells were exposed to 0.2 μg/ml to 2 μg/ml of crystallin proteins, with a maximum effect at 0.5 μg/ml with negligible cell death as determined by trypan-blue exclusion. […]

[3] = tested on: Human Retinal Endothelial Cells (HREC); test: Matrigel tube formation in cultured human retinal endothelial cells; format: cell-based; conditions: exogenously applied protein, Matrigel pre-coated plates, VEGF omitted from media supplement
Procedure: HREC were cultured in EGM2MV media according to the manufacturer's protocol either in the absence (FIG. 25A), or presence (FIG. 25B) of pre-coated Matrigel matrix (Cambrex). (4× magnification)
FIG. 28 is a graph showing the effect of Exogenous γ-crystallins, VEGF, and PEDF on Tube Length in Cultured Human Retinal Endothelial Cells (HREC): HREC grown on Matrigel-coated tissue culture plates in EGM2MV media with VEGF omitted from the media supplement. Cells were treated with BSA (control), 0.2 μg/ml VEGF, 0.6 μg/ml VEGF, concentrations of […] ranging from 0.5 μg/ml to 1.0 μg/ml, or 0.2 μg/ml PEDF. Average tube length was calculated after measuring all of the tubes formed in three separate optical fields from 7 individual culture dishes.
As reported above, a functionally significant effect of β/γ crystallins on vascular remodeling the effect of β/γ crystallins was established on human umbilical vein endothelial cells (HUVEC) in culture. Because the behavior of vascular endothelial cells varies according to their source and the resident tissue environment, the effect of β/γ crystallins on cultured human retinal endothelial cells (HREC) was subsequently analyzed. […] FIG. 28 quantifies these effects.

[4] = tested on: Human Retinal Endothelial Cells (HREC); conditions: relatively high dose tested (0.2 μg/ml PEDF); cited from earlier work

Q: With O=C(O)CC[N+](=O)[O-] [3-NP, 3-nitropropionic acid] as the molecule, how does the “VEGF expression (immunostaining)” value ([1]; 6 hours) read?
A: induction; also recorded: distinct cytoplasmic staining

Q: What about the “β- and γ-crystallin expression (immunostaining)” value ([1]; 6 hours) of the same molecule?
A: induction; also recorded: distinct cytoplasmic staining

Q: And the VEGF antibody fluorescence ([1]; 12 hours)?
A: increased

Q: What about the γ-crystallin antibody fluorescence ([1]; 12 hours) of the same molecule?
A: increased

Q: What about the cell death ([1]; 24 hours) of the same molecule?
A: most of the cells have died

Q: What does the source list for VEGF?
A: tube length (tube processes) [2]: longer tubes; HREC vessel-like tube formation [3]: enhanced

B1: PEDF: PEDF added at 0.2 μg/ml to HREC cultures (protein, UniProt P36955 20-418, looked up)
Pigment epithelium-derived …: QNPASPPEEGSPDPDSTGALVEEEDPFFKVPVNKLAAAVSNFGYDLYRVRSSTSPTTNVLLSPLSVATALSALSLGAEQRTESIIHRALYYDLISSPDIHGTYKELLDTVTAPQKNLKSASRIVFEKKLRIKSSFVAPLEKSYGTRPRVLTGNPRLDLQEINNWVQAQMKGKLARSTKEIPDEISILLLGVAHFKGQWVTKFDSRKTSLEDFYLDEERTVRVPMMSDPKAVLRYGLDSDLSCKIAQLPLTGSMSIIFFLPLKVTQNLTLIEESLTSEFIHDIDRELKTVQAVLTVPKLKLSYEGEVTKSLQEMKLQSLFDSPDFSKITGKPIKLTQVEHRAGFEWNEDGAGTTPSPGLQPAHLTFPLDYHLNQPFIFVLRDTDTGALLFIGKILDPRGP
Q: Which tube formation [4] does the source give for B1 here?
A: stimulate tube formation
